# Data: article PMC8665103 (Journal of medicinal chemistry, 2021)
# Read-outs that look alike come from different tables or passages of the source.
# Tests used:
# [1] = assay type: physicochemical; details: for Colloid radius ±SD / CAC (critical aggregation concentration): DLS; for CAC (critical aggregation concentration): 50 mM KPi pH 7.0, 1% DMSO
# MDH = biological target: T1, MDH (Sus scrofa, UniProt P00346); assay: Colloid centrifugation followed by MDH inhibition of supernatant; assay type: biochemical, porcine; details: 14,000 rpm, 1 h, 4 °C; supernatant tested
# T1 sequence (P00346 25-338): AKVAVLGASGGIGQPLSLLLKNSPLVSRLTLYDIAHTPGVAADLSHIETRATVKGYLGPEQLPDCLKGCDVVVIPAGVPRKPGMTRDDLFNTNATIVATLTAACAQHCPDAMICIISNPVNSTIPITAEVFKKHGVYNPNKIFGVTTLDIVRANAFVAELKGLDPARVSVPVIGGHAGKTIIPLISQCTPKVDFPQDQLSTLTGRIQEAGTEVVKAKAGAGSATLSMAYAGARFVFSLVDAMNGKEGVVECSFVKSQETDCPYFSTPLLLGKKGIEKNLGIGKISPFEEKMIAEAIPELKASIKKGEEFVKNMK
# 3CL-Pro = 3CL-Pro (Severe acute respiratory syndrome coronavirus 2, UniProt P0DTD1); assay: 3CL-Pro kinetics inhibition assay in the presence of 0.05% Tween-20; assay type: biochemical, SARS-CoV-2; details: 0.05% Tween-20 versus literature IC50
# [2] = biological target: T2, MDH (malate dehydrogenase, from porcine heart) (Sus scrofa, UniProt P00346); assay: MDH inhibition counter screen with or without 0.01% Triton X-100; assay type: biochemical; details: for Hill slope of MDH inhibition: in the absence of detergent; for Effect of 0.01% Triton X-100 detergent on MDH inhibition/activity: addition of 0.01% Triton X-100
# T2 sequence (P00346 25-338): T1 sequence (P00346 25-338)
# AmpC β-lactamase = AmpC β-lactamase (Escherichia coli, UniProt P00811); assay: AmpC β-lactamase counter screen with or without 0.01% Triton X-100; assay type: biochemical
# Sequence of AmpC β-lactamase (P00811 20-377): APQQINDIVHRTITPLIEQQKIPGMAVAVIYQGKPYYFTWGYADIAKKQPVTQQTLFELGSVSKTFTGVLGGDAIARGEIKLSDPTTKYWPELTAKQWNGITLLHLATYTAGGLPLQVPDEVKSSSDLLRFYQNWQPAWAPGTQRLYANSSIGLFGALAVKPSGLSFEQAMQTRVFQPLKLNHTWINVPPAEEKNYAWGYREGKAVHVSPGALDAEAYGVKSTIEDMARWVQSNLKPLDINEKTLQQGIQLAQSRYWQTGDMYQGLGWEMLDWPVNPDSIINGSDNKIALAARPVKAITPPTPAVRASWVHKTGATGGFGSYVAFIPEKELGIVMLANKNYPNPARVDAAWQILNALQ
compound,measurement,setting,value
C[C@@H](NCCCc1cccc(C(F)(F)F)c1)c1cccc2ccccc12 [Cinacalcet],Colloid radius ±SD,[1]; literature hits,77 ± 4 nm
O=C(O)c1cccc(CN2C(=O)/C(=C(\c3ccccc3)c3ccc(Cl)cc3)c3ccccc32)c1 [YLF-466D],Colloid radius ±SD,[1]; literature hits,40 ± 0.4 nm
O=C1c2c(O)cccc2Cc2cccc(O)c21 [Anthralin],Colloid radius ±SD,[1]; literature hits,1014 ± 53 nm
COC(=O)C1=C(C)NC(C)=C(C(=O)OCCN2CCN(C(c3ccccc3)c3ccccc3)CC2)C1c1cccc([N+](=O)[O-])c1 (stereo not drawn) [Manidipine],Colloid radius ±SD,[1]; literature hits,929 ± 75 nm
C/C(=C\c1ccc(C(=O)O)cc1)c1ccc2c(c1)C(C)(C)CCC2(C)C [TTNPB],Colloid radius ±SD,[1]; literature hits,72 ± 3 nm
Oc1c(I)cc(Cl)c2cccnc12 [Clioquinol],Colloid radius ±SD,[1]; literature hits,1818 ± 177 nm
CC(C)(C)[C@H]1CC[C@H](CC2=C(O)C(=O)c3ccccc3C2=O)CC1 [Buparvaquone],Colloid radius ±SD,[1]; drugs from repurposing library,186 ± 15 nm
O=C1CCc2ccc(OCCCCN3CCN(c4cccc(Cl)c4Cl)CC3)cc2N1 [Aripiprazole],Colloid radius ±SD,[1]; literature hits,222 ± 5. nm
Brc1c(Br)c(Br)c2[nH]nnc2c1Br [TBB],MDH enzyme activity after centrifugation of compound,MDH,enzyme activity was restored after centrifugation
same,Particles by DLS,[1],did not show particles by DLS
Hemin,Reduction of 3CL-Pro potency in presence of detergent versus literature value,3CL-Pro,2.6 fold
same,Hill slope of MDH inhibition,[2],1.3–1.4
same,CAC (critical aggregation concentration),[1]; literature hits,13 µM
same,Colloid radius ±SD,[1]; literature hits,84 ± 0.9 nm
same,AmpC enzyme activity on addition of 0.01% (v/v) Triton X-100,AmpC β-lactamase; at 25 μM hemin,fully restored enzyme activity
same,IC50,"AmpC β-lactamase; read-out: AmpC IC50, no detergent",23 µM
O=c1c(O)c(-c2cc(O)c(O)c(O)c2)oc2cc(O)cc(O)c12 [Myricetin],Colloid radius ±SD,[1]; literature hits,100 ± 4 nm
COC(=O)C1=C(C)NC(C)=C(C(=O)OC(C)(C)CN(C)CCC(c2ccccc2)c2ccccc2)C1c1cccc([N+](=O)[O-])c1 (stereo not drawn) [Lercanidipine],Effect of 0.01% Triton X-100 detergent on MDH inhibition/activity,[2],MDH activity is restored
same,Hill slope of MDH inhibition,[2],2.9
same,Colloid radius ±SD,[1]; literature hits,853 ± 147 nm
same,Increase in DLS scattering intensity (Cnts/sec) on particle formation,[1]; aqueous buffer,10 fold
COc1ccc(-c2ccc3cc(C(=O)O)ccc3c2)cc1C12CC3CC(CC(C3)C1)C2 [Adapalene],Colloid radius ±SD,[1]; drugs from repurposing library,422 ± 65 nm
Cc1cc2c(C(C)C)c(O)c(O)c(C=O)c2c(O)c1-c1c(C)cc2c(C(C)C)c(O)c(O)c(C=O)c2c1O [Gossypol],Colloid radius ±SD,[1]; literature hits,70 ± 6 nm
Cc1cc(O)c2c(=O)c3c(O)cc(O)c4c5c(O)cc(O)c6c(=O)c7c(O)cc(C)c8c1c2c(c34)c(c78)c65 [Hypericin],Colloid radius ±SD,[1]; literature hits,143 ± 6 nm
COc1c2ccc(-c3ccccc3)oc-2cc(=O)c1C [Dracorhodin],Colloid radius ±SD,[1]; drugs from repurposing library,101 ± 22 nm
Cc1cc(O)c2c(c1)C(=O)c1cc(O)cc(O)c1C2=O [Emodin],Colloid radius ±SD,[1]; literature hits,58 ± 17 nm
Cc1c(C)c2c(c(C)c1O)CCC(C)(CCCC(C)CCCC(C)CCCC(C)C)O2 (stereo not drawn) [Alpha-Tochopherol],Colloid radius ±SD,[1]; drugs from repurposing library,466 ± 5.6 nm
tannic acid,Effect of 0.01% Triton X-100 detergent on MDH inhibition/activity,[2],cannot be reversed by detergent
O=C1C=C2CC3(O)COc4c(ccc(O)c4O)C3=C2C=C1O (stereo not drawn) [Hematein],Colloid radius ±SD,[1]; literature hits,64 ± 1 nm
Cc1cc(-c2ccc(/N=N/c3ccc4c(S(=O)(=O)[O-])cc(S(=O)(=O)[O-])c(N)c4c3O)c(C)c2)ccc1/N=N/c1ccc2c(S(=O)(=O)[O-])cc(S(=O)(=O)[O-])c(N)c2c1O.[Na+].[Na+].[Na+].[Na+] [Evans Blue],MDH enzyme activity after centrifugation of compound,MDH,enzyme activity was restored after centrifugation
same,Particles by DLS,[1],did not show particles by DLS
O=C(O)c1ccc(N2C(=O)/C(=C\c3ccc(-c4ccc([N+](=O)[O-])cc4)o3)C=C2c2ccccc2)cc1 [4E1RCat],Reduction of 3CL-Pro potency in presence of detergent versus literature value,3CL-Pro,fivefold
same,CAC (critical aggregation concentration),[1]; literature hits,6.6 µM
same,Colloid radius ±SD,[1]; literature hits,102 ± 8 nm
CC(C)=CC[C@@H](O)C1=CC(=O)c2c(O)ccc(O)c2C1=O [Shikonin],Hill slope of MDH inhibition,[2],1.3–1.4
same,Colloid radius ±SD,[1]; literature hits,169 ± 9 nm
c1ccc(-c2ccc(C(c3ccccc3)n3ccnc3)cc2)cc1 (stereo not drawn) [Bifonazole],Colloid radius ±SD,[1]; drugs from repurposing library,184 ± 80 nm
Cc1c(-c2ccc(O)cc2)n(Cc2ccc(OCCN3CCCCCC3)cc2)c2ccc(O)cc12 [Bazedoxifene],Colloid radius ±SD,[1]; drugs from repurposing library,2822 ± 814 nm
Clc1ccccc1C(c1ccccc1)(c1ccccc1)n1ccnc1 [Clotrimazole],Colloid radius ±SD,[1]; literature hits,283 ± 15 nm
